Assay results: patent US11505548B2, “Heterocyclic compounds and their use for treatment of helminthic infections and diseases” (Celgene Corporation, priority 2019, dated 2022)

tested on: microfilariae of Dirofilaria immitis; assay: Dirofilaria immitis, Microfilaria (DiMF) Assay; format: cell-based; settings: read-out: D. immitis activity level (IC50 or MED)
Protocol: Heartworm Screen Dirofilaria immitis (D. immitis)
Dirofilaria immitis, Microfilaria (DiMF) Assay.
Compounds were dissolved and serially diluted in DMSO. Aliquots were spotted to the empty wells of assay plates. Media and microfilariae of Dirofilaria immitis were added to each well to dilute the test compounds to the desired concentrations. Assay plates were incubated for approximately 72 hours, and the larvae in each well were observed microscopically for drug effect. Microfilariae in each well were assessed subjectively for survival or paralysis, and results were reported as Minimum Effective Dose (MED).
Active and selective (DiL4 vs. DiMF potency) example compounds were subsequently evaluated in heartworm positive dog studies to correlate the in vitro selectivity profile with in vivo effects on circulating microfilariae.

| Structure (SMILES) | IC50 [nM] |
| --- | --- |
| CNc1cccnc1Nc1nc(-c2cc(C)ccn2)ns1 [Compound 23, N3-methyl-N2-(3-(4-methylpyridin-2-yl)-1,2,4-thiadiazol-5-yl) pyridine-2,3-diamine] | 200 to 500 |
| COc1ccnc(-c2nsc(Nc3cc(C(F)(F)F)c(C(C)C)cn3)n2)c1 [Compound 182, N-(5-iso-propyl-4-(trifluoro-methyl)pyridin-2-yl)-3-(4-methoxy-pyridin-2-yl)-1,2,4-thiadiazol-5-amine] | < 200 |
| COc1ccnc(-c2nsc(Nc3ccc(C(F)(F)F)cn3)n2)c1 [Compound 176, 3-(4-methoxy-pyridin-2-yl)-N-(5-(trifluoromethyl)pyridin-2-yl)-1,2,4-thiadiazol-5-amine] | < 200 |
| FC(F)(F)c1cncc(Nc2nc(-c3ccccn3)ns2)c1 [Cmpd 3, 3-(pyridin-2-yl)-N-(5-(trifluoromethyl)pyridin-3-yl)-1,2,4-thiadiazol-5-amine] | 500 to 5000 |
| COc1ccc(-c2nsc(Nc3ccc(C(F)(F)F)cn3)n2)nc1 [Compound 209, 3-(5-methoxy-pyridin-2-yl)-N-(5-(trifluoromethyl)pyridin-2-yl)-1,2,4-thiadiazol-5-amine] | 500 to 5000 |
| Cc1cccnc1Nc1nc(-c2ccc(OCC3CC3)cn2)ns1 [Compound 73, 3-(5-(cyclopropyl-methoxy)pyridin-2-yl)-N-(3-methylpyridin-2-yl)-1,2,4-thiadiazol-5-amine] | 200 to 500 |
| CC(=O)N(C)c1cc(C(F)(F)F)cnc1Nc1nc(-c2cc3c(cn2)OC(C)(C)C3)ns1 [Compound 272, N-(2-(3-(2,2-dimethyl-2,3-dihydrofuro [2,3-c]pyridin-5-yl)-1,2,4-thiadiazol-5-ylamino)-5-(trifluoromethyl)pyridin-3-yl)-N-methylacetamide] | < 200 |
| COC(=O)c1cc(-c2nsc(Nc3ncccc3C(C)C)n2)ncc1OC(C)C [Compound 197, methyl 5-isopropoxy-2-(5-(3-isopropylpyridin-2-ylamino)-1,2,4-thiadiazol-3-yl)isonicotinate] | < 200 |
| COc1ccc(-c2nnc(Nc3cc(OC(C)C)ccn3)[nH]2)nc1 [Compound 257, 4-isopropoxy-N-(5-(5-methoxy-pyridin-2-yl)-4H-1,2,4-triazol-3-yl)pyridin-2-amine] | 500 to 5000 |
| CC(C)Oc1ccc(-c2nsc(Nc3ncccc3N(C)C)n2)nc1 [Compound 56, N2-(3-(5-isoprop-oxypyridin-2-yl)-1,2,4-thiadiazol-5-yl)-N3,N3 - dimethyl-pyridine-2,3-diamine] | 200 to 500 |
| O=C1CCCN1c1cccnc1Nc1nc(-c2ccc(NC34CC(C3)C4)cn2)ns1 [Compound 204, 1-(2-(3-(5-(bicyclo [1.1.1]pentan-1-ylamino)pyridin-2-yl)-1,2,4-thiadiazol-5-ylamino)pyridin-3-yl)pyrrolidin-2-one] | 500 to 5000 |
| CC(=O)N(C)c1cccnc1Nc1nc(-c2cc(C(C)C)ccn2)ns1 [Compound 216, N-(2-(3-(4-iso-propylpyridin-2-yl)-1,2,4-thiadiazol-5-ylamino)pyridin-3-yl)-N-methyl-acetamide] | 200 to 500 |
| CC(=O)N1CCc2cc(-c3nsc(Nc4ncccc4C(F)(F)F)n3)ncc21 [Compound 267, 1-(5-(5-(3-(trifluoromethyl)pyridin-2-ylamino)-1,2,4-thiadiazol-3-yl)-2,3-dihydro-1H-pyrrolo[2,3-c]pyridin-1-yl)ethanone] | 200 to 500 |
| CC(=O)N(C)c1cccnc1Nc1nc(-c2cc3c(cn2)OC(C)(C)C3)ns1 [Compound 271, N-(2-(3-(2,2-dimethyl-2,3-dihydrofuro [2,3-c]pyridin-5-yl)-1,2,4-thiadiazol-5-ylamino)pyridin-3-yl)-N-methylacetamide] | 500 to 5000 |
| Cc1cccnc1Nc1nc(-c2cc(OC3CC3)ccn2)ns1 [Compound 65, 3-(4-cycloprop-oxypyridin-2-yl)-N-(3-methyl-pyridin-2-yl)-1,2,4-thiadiazol-5-amine] | < 200 |
| CC(=O)N(C)c1cc(C(F)(F)F)cnc1Nc1nc(-c2cc3c(cn2)N(C)CC3)ns1 [Compound 249, N-methyl-N-(2-(3-(1-methyl-2,3-dihydro-1H-pyrrolo[2,3-c]pyridin-5-yl)-1,2,4-thiadiazol-5-ylamino)-5-(trifluoromethyl)pyridin-3-yl)acetamide] | < 200 |
| CC(=O)N(C)c1cc(C(F)(F)F)cnc1Nc1nc(-c2cc(C(F)(F)F)c(OC(C)C)cn2)ns1 [Compound 268, N-(2-(3-(5-isopropoxy-4-(trifluoromethyl)pyridin-2-yl)-1,2,4-thiadiazol-5-ylamino)-5-(trifluoromethyl)pyridin-3-yl)-N-methylacetamide] | < 200 |
| CC(C)Oc1cnc(-c2nsc(Nc3ncccc3N(C)C(=O)C3CC3)n2)cc1C(F)(F)F [Compound 186, N-(2-(3-(5-isopropoxy-4-(trifluoro-methyl)pyridin-2-yl)-1,2,4-thiadiazol-5-ylamino)pyridin-3-yl)-N-methylcyclo-propanecarbox-amide] | 200 to 500 |

| Structure (SMILES) | IC50 [nM] |
| --- | --- |
| CC(C)Oc1cnc(-c2nsc(Nc3ncc(C(C)C)cc3C(F)(F)F)n2)cc1C(N)=O [Compound 221, 5-isopropoxy-2-(5-(5-isopropyl-3-(trifluoromethyl)pyridin-2-ylamino)-1,2,4-thiadiazol-3-yl)iso-nicotinamide] | 200 to 500 |
| CC(C)c1cnc(Nc2nc(-c3ccc(OC4CC4)cn3)ns2)cc1C(F)(F)F [Compound 95, 3-(5-cyclopropoxy-pyridin-2-yl)-N-(5-isopropyl-4-(trifluoromethyl)pyridin-2-yl)-1,2,4-thiadiazol-5-amine] | < 200 |
| CC(C)Oc1cnc(-c2nsc(Nc3ncccc3C(=O)N3CCCC3)n2)cc1C(F)(F)F [Compound 251, (2-(3-(5-isopropoxy-4-(trifluoromethyl)pyridin-2-yl)-1,2,4-thiadiazol-5-ylamino)pyridin-3-yl) (pyrrolidin-1-yl)methanone] | 500 to 5000 |
| CC(C)c1cnc(Nc2nc(-c3ncccc3OC3CC3)ns2)cc1C(F)(F)F [Compound 97, 3-(3-cycloprop-oxypyridin-2-yl)-N-(5-isopropyl-4-(trifluoromethyl)pyridin-2-yl)-1,2,4-thiadiazol-5-amine] | < 200 |
| Cc1cccnc1-c1nsc(Nc2ccc(N3CCCC3)cn2)n1 [Compound 51, 3-(3-methyl-pyridin-2-yl)-N-(5-(pyrrolidin-1-yl)pyridin-2-yl)-1,2,4-thiadiazol-5-amine] | 500 to 5000 |
| CC(C)c1ccnc(-c2nsc(Nc3ncccc3C(F)(F)F)n2)c1 [Compound 67, 3-(4-isopropyl-pyridin-2-yl)-N-(3-(trifluoromethyl)pyridin-2-yl)-1,2,4-thiadiazol-5-amine] | < 200 |
| CC(C)Oc1ccc(-c2nsc(Nc3ncccc3N(C)C(=O)C3CCCC3)n2)nc1 [Compound 172, N-(2-(3-(5-isopropoxy-pyridin-2-yl)-1,2,4-thiadiazol-5-ylamino)pyridin-3-yl)-N-methylcyclo-pentane-carboxamide] | 200 to 500 |
| CC(=O)N(C)c1cc(C(F)(F)F)cnc1Nc1nc(-c2ccc(OC(C)C)cn2)ns1 [Compound 247, N-(2-(3-(5-isopropoxy-pyridin-2-yl)-1,2,4-thiadiazol-5-ylamino)-5-(trifluoro-methyl)pyridin-3-yl)-N-methylacetamide] | < 200 |
| CC(C)Oc1cnc(-c2nsc(Nc3ncccc3C(=O)N(C)C3CC3)n2)cc1C(F)(F)F [Compound 263, N-cyclo-propyl-2-(3-(5-isopropoxy-4-(trifluoro-methyl)pyridin-2-yl)-1,2,4-thiadiazol-5-ylamino)-N-methyl-nicotinamide] | < 200 |
| COc1cccnc1Nc1nc(-c2cc(C(F)(F)F)c(OC(C)C)cn2)ns1 [Compound 167, 3-(5-isopropoxy-4-(trifluoromethyl)pyridin-2-yl)-N-(3-methoxypyridin-2-yl)-1,2,4-thiadiazol-5-amine] | 500 to 5000 |
| CC(C)Oc1ccc(-c2nsc(Nc3ncccc3N3CCCC3=O)n2)nc1 [Compound 178, 1-(2-(3-(5-isopropoxy-pyridin-2-yl)-1,2,4-thiadiazol-5-ylamino)pyridin-3-yl)pyrrolidin-2-one] | 500 to 5000 |
| c1ccc(-c2ccnc(Nc3nc(-c4ccccn4)ns3)c2)cc1 [Compound 237, N-(4-phenyl-pyridin-2-yl)-3-(pyridin-2-yl)-1,2,4-thiadiazol-5-amine] | 200 to 500 |
| CC(C)c1cccnc1Nc1nc(-c2ccc(OC3CCN(C4CC4)CC3(F)F)cn2)ns1 (stereo not drawn) [Compound 87, 3-(5-(1-cyclo-propyl-3,3-difluoro-piperidin-4-yloxy)pyridin-2-yl)-N-(3-isopropylpyridin-2-yl)-1,2,4-thiadiazol-5-amine] | 200 to 500 |
| Cc1ccnc(Nc2nnc(-c3ncccc3C)[nH]2)c1 [Compound 242, 4-methyl-N-(5-(3-methyl-pyridin-2-yl)-4H-1,2,4-triazol-3-yl)pyridin-2-amine] | 200 to 500 |
| Cc1cccnc1Nc1nc(-c2ccc(O[C@@H]3CCN(C4CC4)C[C@H]3F)cn2)ns1 [Compound 91, 3-(5-((3R,4R)-1-cyclopropyl-3-fluoro-piperidin-4-yloxy)pyridin-2-yl)-N-(3-methylpyridin-2-yl)-1,2,4-thiadiazol-5-amine] | 500 to 5000 |
| COc1cccnc1-c1nsc(Nc2cc(C(F)(F)F)c(C(C)C)cn2)n1 [Compound 210, N-(5-isopropyl-4-(trifluoromethyl)pyridin-2-yl)-3-(3-methoxy-pyridin-2-yl)-1,2,4-thiadiazol-5-amine] | 200 to 500 |
| CC(C)Oc1ccc(-c2nsc(Nc3ncccc3C(F)(F)F)n2)nc1 [Compound 54, 3-(5-isopropoxy-pyridin-2-yl)-N-(3-(trifluoromethyl)pyridin-2-yl)-1,2,4-thiadiazol-5-amine] | < 200 |
| CC(C)Oc1cnc(-c2nsc(Nc3ncccc3C(=O)N(C)C)n2)cc1C(F)F [Compound 260, 2-(3-(4-(difluoro-methyl)-5-isopropoxy-pyridin-2-yl)-1,2,4-thiadiazol-5-ylamino)-N,N-dimethyl-nicotinamide] | 200 to 500 |
